Assays:
[1] = test system: Candida albicans (strain CN 7996); assay: In vivo activity against Candida albicans infection in mice; set-up: species or system Swiss male albino mice (Charles River CD1); settings: cyclophosphamide 50 mg/kg i.v. 96 hours before infection, GM1 P 10 mg/kg s.c. 96 and 24 hours before infection, or both
Procedure: 53 Swiss male albino mice (Charles River CD1) weighing 23±1 g were randomly divided into […] groups of 10, 14, 14 and 15 animals each (groups 1 to 4 respectively). Group 1 animals were injected with saline as a control group; Group 2 were injected with cyclophosphamide 50 mg/kg (0.2 ml/mouse) intravenously 96 hours before infection; Group 3 with cyclophosphamide 50 mg/kg (0.2 ml/mouse) intravenously 96 hours before infection and with GM1 P 10 mg/kg (0.25 ml/10 g) subcutaneously at 96 and 24 hours before infection; and Group 4 with GM1 P 10 mg/kg (0.25 ml/10 g) subcutaneously 96 and 24 hours before infection. The mice were then injected intravenously with 0.225 ml/mouse of an 18 hour culture of Sabouraud glucose broth containing 1.204×10^7 Candida albicans cells/ml (strain CN 7996).

Plasmodium berghei = assay: In vivo activity against Plasmodium berghei protozoa in mice; set-up: species or system Swiss male albino mice (Charles River CD1); settings: GM1 P (Example 1) 5 mg/kg s.c. 24 and 2 hours before infection, pyrimethamine 1 mg/kg s.c. days 0, 1 and 2, or both
Procedure: 40 Swiss male albino mice (Charles River CD1) weighing 22±1 g were randomly divided into groups of 10 and injected intraperitoneally with 0.1 ml/10 g of citrated blood of 6-day parasitised mice which had been diluted 1:1000 (v/v) with saline to obtain 1.58×10^6 P. berghei I.S.S./ml. The control group (1) were injected with saline, group 2 with ganglioside GM1 P prepared by the method of Example 1 (5 mg/kg s.c. in saline), group 3 with the known anti-protozoal agent pyrimethamine (1 mg/kg s.c. in CMC 0.25% in water, w/v), and group 4 with both GM1 P and pyrimethamine at the doses stated above. The dose volume was 0.25 ml/10 g. The GM1 P was administered 24 hours and 2 hours before infection (Day 0) and the pyrimethamine on days 0,1 and 2.

## O=P1(N(CCCl)CCCl)NCCCO1 (stereo not shown) [cyclophosphamide]
[1]; Day 23
  Number alive at Day 23: 0
[1]
  Mean survival time: 1.21 days

## CCc1nc(N)nc(N)c1-c1ccc(Cl)cc1 [pyrimethamine]
Plasmodium berghei; Day 9
  Mortality (%) Day 9: 50%
Plasmodium berghei; Day 13
  Mortality (%) Day 13: 90%
